According to publication PMC9619929, “Conditional Antimicrobial Peptide Therapeutics” (ACS Nano, 2022):

Assays:
Toxicity evaluation = format: in vivo, mouse
Description: ABD-AMP conjugates at different doses were intravenously administered to CD-1 mice. The mice were closely monitored for 24 h before euthanization unless significant morbidity was observed that necessitated early euthanization. Blood samples were drawn via cardiac puncture and dispensed into serum separator tubes (BD Microtainer). The samples were left to clot for at least 30 min and spun at 15 000 rcf for 1.5 min to separate serum. The serum samples were frozen in a −20 °C freezer and submitted for serum chemistry analysis by MIT Diagnostic Laboratory (MIT Division of Comparative Medicine). Serum levels of pro-inflammatory cytokine IL-6 and TNF-α were quantified using ELISA MAX standard sets (BioLegend, CA, U.S.A.) following the manufacturer’s protocol. Organs were harvested, fixed in 10% formalin at RT for 24 h, sectioned into 5 μm slices, and stained with H&E for analysis. The slides were evaluated by a veterinary pathologist blind to the treatment groups and were digitized using a Pannoramic digital slide scanner at 20× magnification.

[1] = mouse, in vivo, iv
Description: All animal studies were approved by the Massachusetts Institute of Technology’s Committee on Animal Care (MIT protocol 0619-034-22). CD-1 mice (11–12 weeks old) were rendered neutropenic by intraperitoneal injections of cyclophosphamide at 4 d (150 mg/kg) and 1 d (100 mg/kg) prior to infection. PAO1 inoculation was performed by intratracheal instillation of PAO1 suspension (2 × 10^5 cfu in 50 μL PBS) via a 22G blunt-end catheter (EXCEL International). For BALF collection, the mice were first euthanized. An incision into the trachea was made with a needle puncture where lavage was performed with PBS (1 mL) via a catheter-fitted syringe. BALFs were centrifuged to remove cells, aliquoted, and stored in a −20 °C freezer.
ABD-AMP-Cy7 conjugates (15 nmol) were intravenously administered at 6 h post infection. The mice were euthanized 2 h after and organs were harvested for imaging with an Odyssey CLx imager. After imaging, organs were homogenized in PBS supplemented with Halt protease inhibitor cocktail (ThermoFisher Scientific, MA, U.S.A.) using a gentleMAC dissociator (Miltenyi Biotec, CA, U.S.A.). The homogenates were pelleted and the supernatants were used for SDS-PAGE analysis.

Pharmacokinetics study = format: in vivo, mouse; conditions: 15 nmol IV, CD-1 mice, blood, n = 4
Description: ABD-AMP-Cy7 conjugates (15 nmol) were intravenously administered to CD-1 mice. At different time intervals, blood samples (5 μL) were collected via saphenous vein bleeding using heparin-coated capillary tubes. Blood samples were diluted 10-fold in PBS supplemented with Halt protease inhibitor cocktail and EDTA and centrifuged to remove cells. The supernatants were used to quantify conjugate concentration via SDS-PAGE analysis.

Compound | Signs of distress over the observation period (Toxicity evaluation; 10 mg/kg (AMP eq) IV, 24 h) | Histology evaluation of organs (H&E) (Toxicity evaluation; 10 mg/kg (AMP eq) IV, 24 h, blinded veterinary pathologist, n = 3) | Mice that did not survive to the study end point (Toxicity evaluation; 10 mg/kg IV, 24 h) | Serum pro-inflammatory cytokine IL-6 (Toxicity evaluation; 10 mg/kg IV, ELISA) | Serum levels of ALT, AST, BUN and creatinine (Toxicity evaluation; IV, 5 and 10 mg/kg AMP eq, 24 h, (D)Pex result at 10 mg/kg, n = 3–5) | Maximum tolerated dose (MTD) (Toxicity evaluation; IV, CD-1 mice, monitored 24 h) [mg/kg] | AUC ((D)Pex-Cy7), kidneys [1] [% ID*h/g] | AUC ((D)Pex-Cy7), liver [1] [% ID*h/g] | AUC ((D)Pex-Cy7), lungs [1] [% ID*h/g] | AUC ((D)Pex-Cy7), spleen [1] [% ID*h/g] | AUC (Pharmacokinetics study; SDS-PAGE Cy7 quantification) [µM·h] | t1/2,α (Pharmacokinetics study) [min] | t1/2,β (Pharmacokinetics study) [min]
CC[C@@H](C)[C@@H](NC(=O)CN)C(=O)NCC(=O)N[C@H](CCCCN)C(=O)N[C@H](Cc1ccccc1)C(=O)N[C@H](CC(C)C)C(=O)N[C@H](CCCCN)C(=O)N[C@H](CCCCN)C(=O)N[C@H](C)C(=O)N[C@H](CCCCN)C(=O)N[C@H](CCCCN)C(=O)N[C@H](Cc1ccccc1)C(=O)NCC(=O)N[C@H](CCCCN)C(=O)N[C@H](C)C(=O)N[C@H](Cc1ccccc1)C(=O)N[C@@H](C(=O)N[C@H](CCCCN)C(=O)N[C@@H](C(=O)N[C@H](CC(C)C)C(=O)N[C@H](CCCCN)C(=O)N[C@H](CCCCN)C(N)=O)[C@H](C)CC)C(C)C [(D)Pex] | signs of distress | Pathological damage was observed in kidneys and spleen | 3 of 5 | significantly elevated | elevated beyond a normal reference range | 5 |  |  |  |  |  |  | 
Azidoacetyl–GiGkflkkakkfGkafvkilkk–K(Cy7)–CONH2 [(D)Pex-Cy7, free unconjugated Cy7-labelled (D)Pex control] |  |  |  |  |  |  | 14.1 | 112 | 5.29 | 23.5 | 2.08 | 35.3 | 35.6
